# Source: EP0125615B1, “Schwanniomyces castellii strains and brewing process” (LABATT BREWING COMPANY LIMITED, priority 1983, dated 1984)
# System: Schwanniomyces castellii strain ATCC 26077
# Assay: Mutagenic treatment, mutants resistant to 2-deoxy-glucose on potato starch agar
# Type: cell-based, Schwanniomyces castelli
# Settings: EMS treatment
# Protocol: The present invention also relates to the production of a novel strain of Schwanniomyces castellii. The mutant strain Schwanniomyces castellii NCYC 1461 was produced by treating a known strain, Schwanniomyces castellii ATCC 26077 with known mutagenic agents. The survivors were cultured on potato starch agar in the presence of concentrations of deoxyglucose at least as high as 10-^3 molar. […] Accordingly, the selection of the mutant strain is particularly desirable in the production of the above-mentioned culture filtrate having amylolytic enzyme activity. By means of such a selection there is a large proportionate increase in the relative amount of alpha-amylase present in the clarified culture filtrate. This novel strain of Schwanniomyces castellii is available upon request from the Yeast Collection of the National Collection of Yeast Cultures Depository ("NCYC"), Food Research Institute, Norwich, Norfolk, England. The ascession number of that organism in the above-mentioned repository is NCYC 1461. Schwanniomyces castellii strain NCYC 1461 is one of a number of mutant strains of Schwanniomyces castellii that .were produced by way of the above-outlined mutagenic treatment of Schwanniomyces castellii strain ATCC 26077. The particulars of the mutagenic treatments are detailed below in Table III which indicates the time of exposure, the percent survival rate, and the frequency of mutation for both of the treatments employed.
smiles,measurement,setting,value
CCOS(C)(=O)=O [EMS],% Survival,time of exposure 30 min,66%
same,Frequency of mutation,time of exposure 30 min,10^-3
same,% Survival,time of exposure 60 min,14%
same,Frequency of mutation,time of exposure 60 min,2×10^-4
